Experimental data taken from US20090068719A1, “IMMUNOASSAYS, HAPTENS, IMMUNOGENS AND ANTIBODIES FOR ANTI-HIV THERAPEUTICS” (priority 2003, published 2009).

Columns and labels:
[1] = human, in vivo; cited from earlier work
[2] = test system: HIV; details: cited from earlier work
[3] = test system: Anti-(D2)2; assay: Specificity of the lopinavir immunoassay (cross-reactivity); format: binding, rabbit; details: crossreactant 10 μg/mL + 5 μg/mL Lopinavir in human serum
Method: An immunoassay for lopinavir was conducted on the Cobas Mira Chemistry Analyzer (Roche). […] The specificity of the immunoassay was evaluated by adding potentially crossreactant drugs to human serum and determining the increase in the apparent concentration as a result of the presence of crossreactant. […] Each sample was assayed in duplicate. Testing was performed on the Cobas Mira analyzer. The percentage concentration above 5 μg/mL of lopinavir was calculated for each crossreactant.

[4] = test system: Anti-(D2)2; assay: Homogeneous enzyme immunoassay for lopinavir, standard curve; format: binding, rabbit; details: Enzyme Conjugate (D2)/G6PDH Reagent
Text: Enzyme Conjugate (D2)/G6PDH and Antibody Anti-(D2)2 were selected as exemplary materials for the development of a homogeneous enzyme immunoassay for the anti-HIV therapeutic lopinavir. Enzyme Conjugate (D2)/G6PDH Reagent, as described in Example 45, was used. Also antibody Anti-(D2)2 was used in this Example as part of an antibody reagent (“Anti-(D2)2 Antibody Reagent”) further comprising nicotinamide adenine dinucleotide, glucose-6-phosphate, sodium chloride, bulking agent, surfactant, and preservatives.
An immunoassay for lopinavir was conducted on the Cobas Mira Chemistry Analyzer (Roche). On the analyzer, 4 μL of sample plus 61 μL water were incubated for 300 sec with 150 μL of Anti-(D2)2 Antibody Reagent. Subsequently, 75 μL of the Enzyme Conjugate (D2)/G6PDH Reagent was added. After 25 sec incubation, enzyme activity was monitored by following the production of NADH spectrophotometrically at 340 nm for 50 sec.
A series of known concentrations of lopinavir standards (ranging from 0 to 10 μg/mL) were prepared gravimetrically in MES (2-(N-Morpholino)ethanesulfonic acid, 0.01 M, pH 5.5) formulated with EDTA, protein additive, detergent, antiform agent, and preservative. Similarly, quality control samples were prepared (1.0 and 5.0 μg/mL).
Lopinavir was dissolved in methanol to give a stock solution of 1000 μg/mL. Synthetic buffered calibrator matrix 10 mL aliquots were spiked to give lopinavir standards with concentrations shown in Table 4. A series of Anti-(D2)2 Antibody Reagents were prepared by adding antibody to antibody/substrate diluent. Each antibody/substrate reagent was assayed with Enzyme Conjugate (D2)/G6PDH Reagent. Calibration curves were generated on the Cobas Mira by assaying each level in duplicate.

[5] = human; cited from earlier work
[6] = rat, dog, and human primary hepatocytes; cited from earlier work
[7] = rats or dogs; cited from earlier work

Compound | Metabolite identified in urine [1] [%] | Percent Increase in Apparent Lopinavir Conc. above 5 μg/mL [3] [%] | other results
O=C1Nc2c(COC3OC(C(=O)O)C(O)C(O)C3O)ccnc2N(C2CC2)c2ncccc21 (stereo not shown) [12-hydroxynevirapine glucuronide] | 23.7 |  | 
COc1c(O)ccc(C(=O)N[C@@H](CSc2ccccc2)[C@H](O)CN2C[C@H]3CCCC[C@H]3C[C@H]2C(=O)NC(C)(C)C)c1C [3′-methoxy-4′-hydroxynelfinavir] |  |  | EC50 relative to nelfinavir [2]: fivefold higher
Cc1c(O)cccc1C(=O)N[C@@H](CSc1ccccc1)[C@H](O)CN1C[C@H]2CCCC[C@H]2C[C@H]1C(=O)NC(C)(C)C [Nelfinavir, nelfinavir] |  | 1 | 
CC(C)(C)NC(=O)[C@@H]1C[C@@H]2CCCC[C@@H]2CN1C[C@@H](O)[C@H](Cc1ccccc1)NC(=O)[C@H](CC(N)=O)NC(=O)c1ccc2ccccc2n1 [Saquinavir, saquinavir] |  | 1 | 
Cc1c(O)cnc2c1NC(=O)c1cccnc1N2C1CC1 [3-hydroxynevirapine] | 1.2 |  | 
Cc1cccc(C)c1OCC(=O)N[C@@H](Cc1ccccc1)[C@@H](O)C[C@H](Cc1ccccc1)NC(=O)[C@H](C(C)C)N1CCCNC1=O [Lopinavir, lopinavir] |  |  | Reaction Rate ([4]; Lopinavir 0.5 μg/mL): 311.1 mA/min; Reaction Rate ([4]; Lopinavir 1.0 μg/mL): 338.9 mA/min; Reaction Rate ([4]; Lopinavir 2.5 μg/mL): 390.7 mA/min; Reaction Rate ([4]; Lopinavir 5.0 μg/mL): 427.0 mA/min; Reaction Rate ([4]; Lopinavir 10.0 μg/mL): 457.1 mA/min; Metabolism by liver microsomes [5]: metabolized very extensively and rapidly
Cc1ccnc2c1NC(=O)c1cc(OC3OC(C(=O)O)C(O)C(O)C3O)cnc1N2C1CC1 (stereo not shown) [8-hydroxynevirapine glucuronide] | 1.3 |  | 
CC(C)(C)NC(=O)[C@@H]1CN(Cc2cccnc2)CCN1C[C@@H](O)C[C@@H](Cc1ccccc1)C(=O)N[C@H]1c2ccccc2C[C@H]1O [Indinavir, indinavir] |  | 0 | 
CCC[C@@]1(CCc2ccccc2)CC(O)=C([C@H](CC)c2cccc(NS(=O)(=O)c3ccc(C(F)(F)F)cn3)c2)C(=O)O1 [tipranavir] |  |  | Metabolic stability in hepatocyte incubations [6]: stable; Plasma metabolic profile [7]: only the parent drug
O=C1Nc2c(CO)ccnc2N(C2CC2)c2ncccc21 [12-hydroxynevirapine] | 0.6 |  | 
Cc1c(OC2OC(C(=O)O)C(O)C(O)C2O)cnc2c1NC(=O)c1cccnc1N2C1CC1 (stereo not shown) [3-hydroxynevirapine glucuronide] | 25.7 |  | 
CC(C)CN(C[C@@H](O)[C@H](Cc1ccccc1)NC(=O)O[C@H]1CCOC1)S(=O)(=O)c1ccc(N)cc1 [Amprenavir, amprenavir] |  | 1 | 
O=C1Nc2ccc(Cl)cc2[C@@](C#CC2CC2)(C(F)(F)F)O1 [Efavirenz, efavirenz] |  | 0 | 
Cc1ccnc2c1NC(=O)c1cccnc1N2C1CC1 [nevirapine] |  |  | Fraction of the dose excreted in urine as parent compound [1]: 2.7%; Mean plasma elimination half-life, NVP [1]: 20.0 h; Parent compound share of circulating radioactivity [1]: 75%
Cc1cc(OC2OC(C(=O)O)C(O)C(O)C2O)nc2c1NC(=O)c1cccnc1N2C1CC1 (stereo not shown) [2-hydroxynevirapine glucuronide] | 18.6 |  | 
O=C1Nc2c(C(=O)O)ccnc2N(C2CC2)c2ncccc21 [4-carboxy-nevirapine] | 2.4 |  | 
CC(C)c1nc(CN(C)C(=O)N[C@H](C(=O)N[C@@H](Cc2ccccc2)C[C@H](O)[C@H](Cc2ccccc2)NC(=O)OCc2cncs2)C(C)C)cs1 [Ritonavir, ritonavir] |  | 0 | 
